Legend:
[1] = Circular dichroism helicity; type: physicochemical; conditions: CD, MRE222 vs theoretical maximum; PBS (50 mM)/acetonitrile 95:5, pH 7.4, 20 °C; average of three scans
Method: Each purified peptide was dissolved in phosphate buffer (PBS; 50 mM)/acetonitrile (95:5, pH 7.4) and its circular dichroism spectrum was recorded.
Circular dichroism: CD spectra were obtained on a Chirascan CD spectrometer at 20 °C (1 mm path length, 260–190 nm, bandwidth 1.0 nm, response time 0.5 s, step resolution 1.0 nm) Each spectrum is the average of three scans. Peptides were dissolved in PBS (50 mM)/acetonitrile (95:5, pH 7.4) at 20 °C. The helicity was calculated as previously reported19b by comparing mean residue ellipticity at 222 nm (MRE222) to the theoretical maximum as calculated from the formula [Eq. (1), n=number of amino acid residues] described by Forood et al.21 (1) MRE222=-40000×(1-2.5/n)
Spectra were obtained at several concentrations ([…]).

α-chymotrypsin = assay: Serum stability assay: incubation with α‐chymotrypsin; type: in vitro ADME; conditions: α-chymotrypsin (0.5 μg/mL) in PBS, α-chymotrypsin 0.5 μg mL−1 in PBS, peptide 0.3 mM from DMSO stock, RT, HPLC 220 nm vs caffeine internal standard, duplicate, read-out: peptide remaining intact after 6 h of incubation with α‐chymotrypsin
Method: Serum stability assay: Each peptide was dissolved in PBS (300 μL) from a DMSO stock to a final concentration of 0.3 mM. This PBS contained α‐chymotrypsin (0.5 μg mL^−1) and caffeine as an internal standard. Peptides were incubated at RT, and at each time point, an aliquot (30 μL) of the mixture was removed, snap frozen, thawed and centrifuged, and the supernatant was analysed by HPLC. Peptide degradation was monitored by comparing the integration of the peptide peak against the internal standard at […]. Experiments were performed in duplicate.

Row | Compound | Helicity [1] [%] | remaining at 6 h, 0.3 mM (α-chymotrypsin) [%]
1 | C=CCCC[C@](C)(NC(=O)[C@H](Cc1ccccc1)NC(=O)[C@@H](NC(=O)[C@H](CCC(=O)O)NC(C)=O)[C@@H](C)O)C(=O)N[C@@H](CC(=O)O)C(=O)N[C@@H](CC(C)C)C(=O)N[C@@H](Cc1c[nH]c2ccccc12)C(=O)N[C@@H](CCCNC(=N)N)C(=O)N[C@@H](CC(C)C)C(=O)N[C@@H](CC(C)C)C(=O)N[C@@H](CCN=[N+]=[N-])C(=O)N[C@@H](CCC(=O)O)C(=O)N[C@@H](CC(N)=O)C(N)=O [SP0] | 52 | 17
2 | CC(=O)N[C@@H](CCC(=O)O)C(=O)N[C@H](C(=O)N[C@@H](Cc1ccccc1)C(=O)N[C@@]1(C)CCCC=CCCC[C@H](OC(=O)[C@@H](N)CCCCN)c2cn(nn2)CC[C@@H](C(=O)N[C@@H](CCC(=O)O)C(=O)N[C@@H](CC(N)=O)C(N)=O)NC(=O)[C@H](CC(C)C)NC(=O)[C@H](CC(C)C)NC(=O)[C@H](CCCNC(=N)N)NC(=O)[C@H](Cc2c[nH]c3ccccc23)NC(=O)[C@H](CC(C)C)NC(=O)[C@H](CC(=O)O)NC1=O)[C@@H](C)O [SP1 (A)] | 53 | 82
3 | CC(=O)N[C@@H](CCC(=O)O)C(=O)N[C@H](C(=O)N[C@@H](Cc1ccccc1)C(=O)N[C@@]1(C)CCCC=CCCC[C@H](OC(=O)[C@@H](N)CCCCN)c2cn(nn2)CC[C@@H](C(=O)N[C@@H](CCC(=O)O)C(=O)N[C@@H](CC(N)=O)C(N)=O)NC(=O)[C@H](CC(C)C)NC(=O)[C@H](CC(C)C)NC(=O)[C@H](CCCNC(=N)N)NC(=O)[C@H](Cc2c[nH]c3ccccc23)NC(=O)[C@H](CC(C)C)NC(=O)[C@H](CC(=O)O)NC1=O)[C@@H](C)O [SP1 (B)] | 31 | 
4 | CC(=O)N[C@@H](CCC(=O)O)C(=O)N[C@H](C(=O)N[C@@H](Cc1ccccc1)C(=O)N[C@@]1(C)CCCC=CCCC[C@H](OC(=O)[C@H](CCCCN)NC(=O)[C@@H](N)CCCCN)c2cn(nn2)CC[C@@H](C(=O)N[C@@H](CCC(=O)O)C(=O)N[C@@H](CC(N)=O)C(N)=O)NC(=O)[C@H](CC(C)C)NC(=O)[C@H](CC(C)C)NC(=O)[C@H](CCCNC(=N)N)NC(=O)[C@H](Cc2c[nH]c3ccccc23)NC(=O)[C@H](CC(C)C)NC(=O)[C@H](CC(=O)O)NC1=O)[C@@H](C)O [SP1‐K (A)] | 55 | 
5 | CC(=O)N[C@@H](CCC(=O)O)C(=O)N[C@H](C(=O)N[C@@H](Cc1ccccc1)C(=O)N[C@@]1(C)CCCC=CCCC[C@H](OC(=O)[C@H](CCCCN)NC(=O)[C@@H](N)CCCCN)c2cn(nn2)CC[C@@H](C(=O)N[C@@H](CCC(=O)O)C(=O)N[C@@H](CC(N)=O)C(N)=O)NC(=O)[C@H](CC(C)C)NC(=O)[C@H](CC(C)C)NC(=O)[C@H](CCCNC(=N)N)NC(=O)[C@H](Cc2c[nH]c3ccccc23)NC(=O)[C@H](CC(C)C)NC(=O)[C@H](CC(=O)O)NC1=O)[C@@H](C)O [SP1‐K (B)] | 31 | 
6 | CC(=O)N[C@@H](CCC(=O)O)C(=O)N[C@H](C(=O)N[C@@H](Cc1ccccc1)C(=O)N[C@@]1(C)CCCC=CCCC[C@@H](OC(=O)[C@@H](N)CCCCN)c2cn(nn2)CC[C@@H](C(=O)N[C@@H](CCC(=O)O)C(=O)N[C@@H](CC(N)=O)C(N)=O)NC(=O)[C@H](CC(C)C)NC(=O)[C@H](CC(C)C)NC(=O)[C@H](CCCNC(=N)N)NC(=O)[C@H](Cc2c[nH]c3ccccc23)NC(=O)[C@H](CC(C)C)NC(=O)[C@H](CC(=O)O)NC1=O)[C@@H](C)O [SP2 (A)] | 67 | 
7 | CC(=O)N[C@@H](CCC(=O)O)C(=O)N[C@H](C(=O)N[C@@H](Cc1ccccc1)C(=O)N[C@@]1(C)CCCC=CCCC[C@@H](OC(=O)[C@@H](N)CCCCN)c2cn(nn2)CC[C@@H](C(=O)N[C@@H](CCC(=O)O)C(=O)N[C@@H](CC(N)=O)C(N)=O)NC(=O)[C@H](CC(C)C)NC(=O)[C@H](CC(C)C)NC(=O)[C@H](CCCNC(=N)N)NC(=O)[C@H](Cc2c[nH]c3ccccc23)NC(=O)[C@H](CC(C)C)NC(=O)[C@H](CC(=O)O)NC1=O)[C@@H](C)O [SP2 (B)] | 35 | 
8 | CC(=O)N[C@@H](CCC(=O)O)C(=O)N[C@H](C(=O)N[C@@H](Cc1ccccc1)C(=O)N[C@@]1(C)CCCC=CCCC[C@@H](OC(=O)[C@H](CCCCN)NC(=O)[C@@H](N)CCCCN)c2cn(nn2)CC[C@@H](C(=O)N[C@@H](CCC(=O)O)C(=O)N[C@@H](CC(N)=O)C(N)=O)NC(=O)[C@H](CC(C)C)NC(=O)[C@H](CC(C)C)NC(=O)[C@H](CCCNC(=N)N)NC(=O)[C@H](Cc2c[nH]c3ccccc23)NC(=O)[C@H](CC(C)C)NC(=O)[C@H](CC(=O)O)NC1=O)[C@@H](C)O [SP2‐K (A)] | 65 | 
9 | CC(=O)N[C@@H](CCC(=O)O)C(=O)N[C@H](C(=O)N[C@@H](Cc1ccccc1)C(=O)N[C@@]1(C)CCCC=CCCC[C@@H](OC(=O)[C@H](CCCCN)NC(=O)[C@@H](N)CCCCN)c2cn(nn2)CC[C@@H](C(=O)N[C@@H](CCC(=O)O)C(=O)N[C@@H](CC(N)=O)C(N)=O)NC(=O)[C@H](CC(C)C)NC(=O)[C@H](CC(C)C)NC(=O)[C@H](CCCNC(=N)N)NC(=O)[C@H](Cc2c[nH]c3ccccc23)NC(=O)[C@H](CC(C)C)NC(=O)[C@H](CC(=O)O)NC1=O)[C@@H](C)O [SP2‐K (B)] | 36 | 

From publication PMC5488175, “A New Methodology for Incorporating Chiral Linkers into Stapled Peptides” (Chembiochem, 2017)
